Experimental data reported in ChEMBL document CHEMBL5149967, “Chemical Highlights Supporting the Role of Lipid A in Efficient Biological Adaptation of Gram-Negative Bacteria to External Stresses” (J Med Chem, 2021).
pIC50, pKd, pKi: −log10 of the molar value. In brackets after ≈: the same amount, converted by molar mass. Residues, ends and D or L forms follow the SMILES beside them.

Key:
[1] = Inhibition of Escherichia coli Delta tolC LpxD
Escherichia coli [2] = assay: Antibacterial activity against Escherichia coli Delta tolC assessed as bacterial growth inhibition; type: functional, organism-based
Escherichia coli [3] = assay: Antibacterial activity against Escherichia coli TolC minus assessed as bacterial growth inhibition; type: functional, organism-based
[4] = Inhibition of bacterial LpxD; parameters: species or system Bacteria
Klebsiella pneumoniae [5] = assay: Inhibition of Klebsiella pneumoniae LpxH relative to control; settings: concentration not given here
Pseudomonas aeruginosa [6] = assay: Antibacterial activity against Pseudomonas aeruginosa clinical isolate assessed as bacterial growth inhibition at <=2 ug/ml; type: functional; parameters: scale not given: the % may be the effect or the level left; settings: dose <= 2 µg/ml; up to 2 µg/mL
Escherichia coli [7] = assay: Antibacterial activity against Escherichia coli ATCC 25922 assessed as bacterial growth inhibition; type: functional, organism-based
Pseudomonas aeruginosa [8] = assay: Antibacterial activity against Pseudomonas aeruginosa ATCC 27853 assessed as bacterial growth inhibition; type: functional
[9] = Inhibition of bacterial FabH; parameters: species or system Bacteria
[10] = Inhibition of bacterial FabF/B; parameters: species or system Bacteria
[11] = Binding affinity to bacterial LpxA assessed as dissociation constant by SPR analysis; parameters: species or system Bacteria
Escherichia coli [12] = assay: Antibacterial activity against Escherichia coli envA+ assessed as bacterial growth inhibition; type: functional
[13] = Inhibition of Escherichia coli LpxC
[14] = Binding affinity to Escherichia coli LpxC assessed as inhibition constant
Pseudomonas aeruginosa [15] = assay: Antibacterial activity against Pseudomonas aeruginosa assessed as bacterial growth inhibition; type: functional
Escherichia coli [16] = assay: Antibacterial activity against Escherichia coli assessed as bacterial growth inhibition; type: functional
[17] = Inhibition of Escherichia coli LpxA
[18] = Binding affinity to Escherichia coli LpxA assessed as inhibition constant
[19] = Inhibition of Escherichia coli BL21(DE3) LpxA
[20] = Inhibition of mCherry-fused bacterial LpxH assessed as inhibition of UDP-DAG conversion by luminescence based assay; parameters: species or system Bacteria
[21] = Inhibition of Escherichia coli LpxH
Klebsiella pneumoniae [22] = assay: Antibacterial activity against Klebsiella pneumoniae assessed as bacterial growth inhibition; type: functional
Escherichia coli [23] = assay: Inhibition of Escherichia coli LpxH at 1 uM relative to control
[24] = Inhibition of Klebsiella pneumoniae LpxH
Escherichia coli [25] = assay: Antibacterial activity against Escherichia coli Delta tolC expressing Plac/LpxD assessed as bacterial growth inhibition; type: functional
[26] = Binding affinity to bacterial LpxA assessed as dissociation constant; parameters: species or system Bacteria
[27] = Inhibition of bacterial LpxA; parameters: species or system Bacteria

`CC1(C)CC(=O)C2=C(C1)Nc1nn(-c3ccccc3)c(O)c1C2c1ccccc1Cl` (stereo unspecified) gave a pIC50 [1] of 5.49 and an MIC (Escherichia coli [2]) of 3.13 µg/mL (≈ 7.45 µM).

In the case of `CSCC[C@H](NC(=O)[C@H](Cc1ccccc1)NC(=O)[C@H](CC(N)=O)NC(=O)[C@H](CC(N)=O)NC(=O)[C@H](CCC(=O)O)NC(=O)[C@@H](N)CO)C(=O)N[C@@H](CC(C)C)C(=O)N1CCC[C@H]1C(=O)N[C@@H](CC(C)C)C(=O)N[C@@H](CC(C)C)C(=O)N1CCC[C@H]1C(=O)N[C@@H](CC(C)C)C(N)=O` (H-SENNFMLPLLPL-NH2), the pIC50 (Escherichia coli [3]) was 5.50 and the pIC50 [4] was 5.49.

In the case of `O=CN1CCc2cc(S(=O)(=O)N3CCN(c4cccc(Br)c4)CC3)ccc21`, the inhibition (Klebsiella pneumoniae [5]) was 48%.

`CC(C)(N)[C@H](NC(=O)c1ccc(C#CC#C[C@@H]2C[C@H]2CO)cc1)C(=O)NO` [ACHN-975] gave an Activity (Pseudomonas aeruginosa [6]) of 100%, an MIC (Escherichia coli [7]) of 0.125 µg/mL (≈ 0.338 µM) and an MIC (Pseudomonas aeruginosa [8]) of 0.25 µg/mL (≈ 0.677 µM).

With `C/C=C/C/C=C/CCC(=O)[C@H]1O[C@H]1C(N)=O` [CERULENIN] the IC50 [9] was 150 µg/mL (≈ 672 µM) and the IC50 [10] was 0.1 µg/mL (≈ 0.448 µM).

`O=C(O)CCC(=O)c1cccc2ccccc12` gave a pKd [11] of 5.68.

In the case of `CCCc1cc(C2=NC(C(=O)NO)CO2)cc(OC)c1OC` (stereo unspecified), the MIC (Escherichia coli [12]) was 1 µg/mL (≈ 3.24 µM), the pIC50 [13] was 7.52 and the pKi [14] was 7.30. The MIC (Pseudomonas aeruginosa [15]) was > 100 µg/mL.

With `O=C(NO)[C@@H](Cc1ccc2ccccc2c1)NS(=O)(=O)c1ccc(Br)cc1` the pIC50 [13] was 6.40, the MIC (Escherichia coli [16]) was 2 µg/mL (≈ 4.45 µM) and the MIC (Pseudomonas aeruginosa [15]) was > 32 µg/mL.

With `CC[C@H](C)[C@H](NC(=O)[C@@H]1CCCN1C(=O)[C@H](CCC(=O)O)NC(=O)[C@H](CC(C)C)NC(=O)[C@H](CCSC)NC(=O)[C@H](Cc1c[nH]c2ccccc12)NC(=O)CNC(=O)[C@H](CO)NC(=O)[C@@H](N)CO)C(=O)N[C@@H](C)C(=O)NCC(=O)N[C@@H](CCCCN)C(=O)N[C@@H](Cc1c[nH]c2ccccc12)C(=O)N[C@@H](CO)C(=O)N[C@@H](CCCNC(=N)N)C(=O)O` (H-SSGWMLEPIAGKWSR-OH) the pIC50 [17] was 7.22 and the pKi [18] was 7.30.

`CC[C@H](C)[C@H](NC(=O)[C@@H]1CCCN1C(=O)[C@H](CCC(=O)O)NC(=O)[C@H](CC(C)C)NC(=O)[C@H](CCSC)NC(=O)[C@H](Cc1c[nH]c2ccccc12)NC(=O)CNC(=O)[C@H](CO)NC(=O)[C@@H](N)CO)C(=O)N[C@@H](C)C(=O)NCC(=O)N[C@@H](CCCCN)C(=O)N[C@@H](Cc1c[nH]c2ccccc12)C(=O)N[C@@H](CO)C(=O)O` (H-SSGWMLEPIAGKWS-OH) showed a pIC50 [19] of 4.92.

For `O=CN1CCc2cc(S(=O)(=O)N3CCN(c4cccc(C(F)(F)F)c4)CC3)ccc21`, the pIC50 [20] was 5.92, the pIC50 [21] was 6.85 and the MIC (Klebsiella pneumoniae [22]) was > 64 µg/mL. The inhibition (Escherichia coli [23]) was 45%, the MIC (Escherichia coli [7]) was > 64 µg/mL and the pIC50 [24] was 6.44.

For `CC[C@H](C)[C@H](NC(=O)[C@@H]1CCCN1C(=O)[C@H](CC(=O)O)NC(=O)[C@H](CC(C)C)NC(=O)[C@H](CCSC)NC(=O)[C@H](Cc1c[nH]c2ccccc12)NC(=O)CN)C(=O)N[C@@H](C)C(=O)NCC(=O)N[C@@H](CCCCN)C(=O)N[C@@H](Cc1c[nH]c2ccccc12)C(=O)N[C@@H](CO)C(=O)N[C@@H](CCCNC(=N)N)C(=O)O` (H-GWMLDPIAGKWSR-OH), the pIC50 [19] was 7.11.

Work on `CC1(C)CC(=O)C2C(=Nc3nn(-c4ccccc4)c(O)c3C2c2ccccc2Cl)C1` (stereo unspecified) yielded an MIC (Escherichia coli [16]) of 128 µg/mL (≈ 305 µM), an MIC (Escherichia coli [2]) of 1 µg/mL (≈ 2.38 µM) and an MIC (Escherichia coli [25]) of 8 µg/mL (≈ 19.1 µM).

Compound `CC[C@H](C)[C@H](NC(=O)[C@@H]1CCCN1C(=O)[C@H](CCC(=O)O)NC(=O)[C@H](CC(C)C)NC(=O)[C@H](CCSC)NC(=O)[C@H](Cc1c[nH]c2ccccc12)NC(=O)CNC(=O)[C@H](CO)NC(=O)[C@@H](N)CO)C(=O)N[C@@H](C)C(=O)NCC(=O)N[C@@H](CCCCN)C(=O)N[C@@H](Cc1c[nH]c2ccccc12)C(=O)O` (H-SSGWMLEPIAGKW-OH) has a pIC50 [19] of 5.05.

With `COc1ccc(C(=O)CN2C(=O)NC(c3ccccc3)(c3ccccc3)C2=O)cc1` the pKd [26] was 7.00, the IC50 (Escherichia coli [7]) was > 16 µg/mL and the IC50 (Escherichia coli [2]) was 0.5 µg/mL (≈ 1.25 µM). It also gave a pIC50 [27] of 5.85.

For `COc1cccc(Cl)c1C[C@@H]1COCCN1C(=O)c1cc(-c2cc(C)c(N)cn2)n[nH]1`, the IC50 (Escherichia coli [7]) was 16 µg/mL (≈ 36.2 µM), the IC50 (Escherichia coli [2]) was < 0.125 µg/mL and the pIC50 [27] was 6.22.

For `O=C(NO)C1COC(c2ccccc2)=N1` (stereo unspecified), the pIC50 [13] was 5.07, the MIC (Escherichia coli [16]) was 200 µg/mL (≈ 970 µM) and the pKi [14] was 4.62.

`O=CN1CCc2cc(S(=O)(=O)N3CCN(c4cc(F)cc(C(F)(F)F)c4)CC3)ccc21` showed a pIC50 [21] of 7.08, an MIC (Klebsiella pneumoniae [22]) of 2.8 µg/mL (≈ 6.12 µM) and an inhibition (Escherichia coli [23]) of 74%. The pIC50 [24] was 6.96.
